Experimental findings from ChEMBL document CHEMBL1139415, “Highly functionalized 7-azaindoles as selective PPAR gamma modulators” (Bioorg Med Chem Lett, 2008) are described below.

Bounds are passed on as bounds.

One may read the IC50 as the concentration that inhibits the measured activity by half. Broadly, the EC50 is the midpoint of the concentration-response curve. The half-life is the time in which the quantity being followed falls by half. For orientation: bioavailability means dose-corrected exposure relative to a reference, in per cent.

One series addresses Cytochrome P450 3A4 (Homo sapiens, UniProt P08684). Nature of the series: Inhibition of CYP3A4. In kind it is ADME.
Series [1] has as its target T1, Peroxisome proliferator-activated receptor gamma (Homo sapiens, UniProt P37231).
T1 sequence (P37231 whole entry): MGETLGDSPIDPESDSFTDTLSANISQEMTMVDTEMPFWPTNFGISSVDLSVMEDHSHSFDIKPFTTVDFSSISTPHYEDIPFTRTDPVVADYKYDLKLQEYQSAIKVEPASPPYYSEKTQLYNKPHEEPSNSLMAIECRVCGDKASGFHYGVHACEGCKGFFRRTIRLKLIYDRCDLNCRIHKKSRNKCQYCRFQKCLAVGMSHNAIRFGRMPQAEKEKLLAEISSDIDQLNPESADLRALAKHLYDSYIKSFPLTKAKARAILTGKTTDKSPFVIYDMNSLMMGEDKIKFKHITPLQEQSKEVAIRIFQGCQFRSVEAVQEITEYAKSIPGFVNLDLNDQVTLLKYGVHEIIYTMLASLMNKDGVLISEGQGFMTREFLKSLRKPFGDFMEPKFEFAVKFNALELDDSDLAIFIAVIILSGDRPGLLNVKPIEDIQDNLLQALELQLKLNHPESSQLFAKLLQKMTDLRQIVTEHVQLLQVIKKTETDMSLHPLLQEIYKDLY
Nature of the series: Displacement of [3H]2AD-5075 from GST-tagged human PPARgamma receptor expressed in Escherichia coli BL21.

Series [2] addresses T1, Peroxisome proliferator-activated receptor gamma. Nature of the series: Agonist activity at human PPARgamma receptor expressed in african green monkey COS cells after 48 hrs by GAL4 transactivation assay. In kind it is functional, cell-based.
Series [3] is described as follows: Clearance in Sprague-Dawley rat at 0.5 mg, iv and 2.0 mg, po. The class given is ADME, organism-based. Particulars: in vivo.
A short description of series [4]: Half life in Sprague-Dawley rat at 0.5 mg, iv and 2.0 mg, po. In kind it is ADME, organism-based. Particulars: in vivo.
Series [5] in a line: Bioavailability in Sprague-Dawley rat at 0.5 mg, iv and 2.0 mg, po. The class given is ADME, organism-based. The settings on record: in vivo.
The target in series [6] is T2, Peroxisome proliferator-activated receptor alpha (Homo sapiens, UniProt Q07869).
T2 sequence (Q07869 whole entry): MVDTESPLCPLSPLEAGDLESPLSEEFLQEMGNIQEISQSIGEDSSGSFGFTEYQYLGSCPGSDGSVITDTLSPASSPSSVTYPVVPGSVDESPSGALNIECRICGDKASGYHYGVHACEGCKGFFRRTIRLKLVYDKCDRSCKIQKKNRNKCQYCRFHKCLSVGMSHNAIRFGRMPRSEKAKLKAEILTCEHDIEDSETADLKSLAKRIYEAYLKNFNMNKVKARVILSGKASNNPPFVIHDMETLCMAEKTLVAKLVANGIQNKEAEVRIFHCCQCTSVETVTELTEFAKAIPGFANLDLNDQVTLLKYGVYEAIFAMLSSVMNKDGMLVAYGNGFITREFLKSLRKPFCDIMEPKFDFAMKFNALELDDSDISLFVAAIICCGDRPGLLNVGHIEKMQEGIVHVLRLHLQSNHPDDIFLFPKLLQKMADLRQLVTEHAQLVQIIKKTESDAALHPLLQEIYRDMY
The series can be described thus: Binding affinity to human PPARalpha.

The target of series [7] is T3, Peroxisome proliferator-activated receptor delta (Homo sapiens, UniProt Q03181).
T3 sequence (Q03181 whole entry): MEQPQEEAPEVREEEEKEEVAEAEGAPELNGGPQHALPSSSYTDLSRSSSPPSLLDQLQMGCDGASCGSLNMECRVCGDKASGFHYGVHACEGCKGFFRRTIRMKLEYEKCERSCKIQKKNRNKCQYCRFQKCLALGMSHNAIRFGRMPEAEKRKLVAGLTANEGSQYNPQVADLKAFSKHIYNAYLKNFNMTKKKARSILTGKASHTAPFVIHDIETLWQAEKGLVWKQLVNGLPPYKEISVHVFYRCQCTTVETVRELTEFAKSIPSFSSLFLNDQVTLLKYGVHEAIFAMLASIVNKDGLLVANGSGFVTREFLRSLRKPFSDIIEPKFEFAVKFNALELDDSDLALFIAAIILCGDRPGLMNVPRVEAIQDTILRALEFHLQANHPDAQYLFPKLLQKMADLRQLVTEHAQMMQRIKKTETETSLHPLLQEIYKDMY
The series can be described thus: Binding affinity to PPARdelta.

Another series deals with Mus musculus. The series can be described thus: Antiglycemic activity in db/db mouse assessed as glucose correction at 10 mg/kg, po administered daily for 11 days. In kind it is functional.
Series [8] deals with Polyunsaturated fatty acid 5-lipoxygenase (Homo sapiens, UniProt P09917). Nature of the series: Inhibition of 5-Lipoxygenase.
Series [9] can be described thus: Inhibition of PDE2.
A short description of series [10]: Inhibition of PDE3.
The target of series [11] is Prostaglandin D2 receptor (Homo sapiens, UniProt Q13258). The series can be described thus: Inhibition of prostanoid DP receptor.
Prostaglandin D2 receptor, sequence (Q13258 whole entry): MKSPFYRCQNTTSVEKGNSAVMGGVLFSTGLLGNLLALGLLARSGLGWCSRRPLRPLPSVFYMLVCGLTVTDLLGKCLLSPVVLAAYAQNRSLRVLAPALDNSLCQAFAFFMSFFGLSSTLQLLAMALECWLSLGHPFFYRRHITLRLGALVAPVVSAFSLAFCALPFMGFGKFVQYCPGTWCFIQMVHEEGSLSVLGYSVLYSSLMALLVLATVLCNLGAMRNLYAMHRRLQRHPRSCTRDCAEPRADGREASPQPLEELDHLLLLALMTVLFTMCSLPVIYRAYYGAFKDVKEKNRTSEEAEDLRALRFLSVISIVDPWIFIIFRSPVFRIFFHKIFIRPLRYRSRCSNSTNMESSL
The target of series [12] is Prostaglandin E2 receptor EP3 subtype (Homo sapiens, UniProt P43115). The series can be described thus: Inhibition of prostanoid EP3 receptor.
The target in series [13] is Prostaglandin E2 receptor EP4 subtype (Homo sapiens, UniProt P35408). The series can be described thus: Inhibition of prostanoid EP4 receptor.
Prostaglandin E2 receptor EP4 subtype, sequence (P35408 whole entry): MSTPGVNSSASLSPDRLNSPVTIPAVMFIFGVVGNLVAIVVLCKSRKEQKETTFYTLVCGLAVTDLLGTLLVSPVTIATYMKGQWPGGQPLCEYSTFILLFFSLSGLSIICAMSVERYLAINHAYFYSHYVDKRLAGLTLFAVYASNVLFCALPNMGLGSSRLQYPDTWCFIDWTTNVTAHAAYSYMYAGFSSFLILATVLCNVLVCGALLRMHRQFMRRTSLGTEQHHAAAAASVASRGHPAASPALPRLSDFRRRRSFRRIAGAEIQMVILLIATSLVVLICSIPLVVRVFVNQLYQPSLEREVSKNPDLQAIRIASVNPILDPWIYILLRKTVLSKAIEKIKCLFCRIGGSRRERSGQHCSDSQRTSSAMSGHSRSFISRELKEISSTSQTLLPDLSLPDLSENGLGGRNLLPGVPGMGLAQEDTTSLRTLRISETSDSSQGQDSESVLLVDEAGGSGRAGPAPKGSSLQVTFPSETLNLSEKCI
The target of series [14] is Prostaglandin F2-alpha receptor (Homo sapiens, UniProt P43088). Nature of the series: Inhibition of prostanoid FP receptor.
Prostaglandin F2-alpha receptor, sequence (P43088 whole entry): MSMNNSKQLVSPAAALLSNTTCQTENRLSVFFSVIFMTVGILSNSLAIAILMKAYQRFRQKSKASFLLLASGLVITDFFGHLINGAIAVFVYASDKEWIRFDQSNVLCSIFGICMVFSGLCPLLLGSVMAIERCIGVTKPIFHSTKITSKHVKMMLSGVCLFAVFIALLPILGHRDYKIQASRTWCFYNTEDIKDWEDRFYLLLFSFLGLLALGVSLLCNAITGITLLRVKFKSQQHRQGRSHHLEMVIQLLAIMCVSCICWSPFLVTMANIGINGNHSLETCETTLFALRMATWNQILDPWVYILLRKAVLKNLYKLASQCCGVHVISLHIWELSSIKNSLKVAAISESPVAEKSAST
The target of the next series is Prostacyclin receptor (Homo sapiens, UniProt P43119). The series can be described thus: Inhibition of prostanoid IP receptor.
Prostacyclin receptor, sequence (P43119 whole entry): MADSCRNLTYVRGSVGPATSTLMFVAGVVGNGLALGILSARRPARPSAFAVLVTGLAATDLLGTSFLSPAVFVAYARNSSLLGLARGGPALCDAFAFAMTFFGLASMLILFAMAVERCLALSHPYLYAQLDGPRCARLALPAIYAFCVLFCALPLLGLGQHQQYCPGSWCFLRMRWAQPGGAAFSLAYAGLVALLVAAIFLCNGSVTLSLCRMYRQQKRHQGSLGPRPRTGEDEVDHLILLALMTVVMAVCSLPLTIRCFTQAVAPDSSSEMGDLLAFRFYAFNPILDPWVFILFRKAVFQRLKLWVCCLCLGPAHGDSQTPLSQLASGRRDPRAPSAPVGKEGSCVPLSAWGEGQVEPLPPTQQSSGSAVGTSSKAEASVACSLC
The target of series [15] is Alpha-2A adrenergic receptor (Homo sapiens, UniProt P08913). Nature of the series: Displacement of radioligand from adrenergic alpha2A receptor.
Alpha-2A adrenergic receptor, sequence (P08913 whole entry): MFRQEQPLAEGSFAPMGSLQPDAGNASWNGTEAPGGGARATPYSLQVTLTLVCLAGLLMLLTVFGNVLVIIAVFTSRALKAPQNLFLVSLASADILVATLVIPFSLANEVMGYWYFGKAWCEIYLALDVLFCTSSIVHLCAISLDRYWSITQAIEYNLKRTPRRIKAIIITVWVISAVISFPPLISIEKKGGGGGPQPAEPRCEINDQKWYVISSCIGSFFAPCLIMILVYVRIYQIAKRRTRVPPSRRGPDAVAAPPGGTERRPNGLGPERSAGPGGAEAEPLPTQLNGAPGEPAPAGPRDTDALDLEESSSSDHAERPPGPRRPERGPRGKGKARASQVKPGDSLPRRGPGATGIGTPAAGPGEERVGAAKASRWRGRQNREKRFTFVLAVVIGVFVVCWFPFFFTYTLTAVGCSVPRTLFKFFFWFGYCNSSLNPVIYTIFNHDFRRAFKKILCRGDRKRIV
Series [16] concerns the target Alpha-2B adrenergic receptor (Homo sapiens, UniProt P18089). Nature of the series: Displacement of radioligand from adrenergic alpha2B receptor.
Series [17] concerns the target Beta-1 adrenergic receptor (Homo sapiens, UniProt P08588). Nature of the series: Displacement of radioligand from adrenergic beta-1 receptor.
Series [18] concerns the target Beta-3 adrenergic receptor (Homo sapiens, UniProt P13945). The series can be described thus: Displacement of radioligand from adrenergic beta3 receptor.
Series [19] addresses Sodium-dependent noradrenaline transporter (Homo sapiens, UniProt P23975). Nature of the series: Displacement of radioligand from NET.
Another series addresses D(1A) dopamine receptor (Homo sapiens, UniProt P21728). The series can be described thus: Displacement of radioligand from dopamine D1 receptor.
The target of the next series is D(2) dopamine receptor (Homo sapiens, UniProt P14416). The series can be described thus: Displacement of radioligand from dopamine D2S receptor.
In a further series the target is D(3) dopamine receptor (Homo sapiens, UniProt P35462). Nature of the series: Displacement of radioligand from dopamine D3 receptor.
Series [20] has as its target Sodium-dependent dopamine transporter (Homo sapiens, UniProt Q01959). The series can be described thus: Displacement of radioligand from DAT.
For series [21], the target named is Muscarinic acetylcholine receptor M3 (Homo sapiens, UniProt P20309). The series can be described thus: Displacement of radioligand from muscarinic M3 receptor.
Series [22] addresses Muscarinic acetylcholine receptor M4 (Homo sapiens, UniProt P08173). Nature of the series: Displacement of radioligand from muscarinic M4 receptor.
Series [23] deals with Delta-type opioid receptor (Homo sapiens, UniProt P41143). Nature of the series: Displacement of radioligand from delta opioid receptor.
Delta-type opioid receptor, sequence (P41143 whole entry): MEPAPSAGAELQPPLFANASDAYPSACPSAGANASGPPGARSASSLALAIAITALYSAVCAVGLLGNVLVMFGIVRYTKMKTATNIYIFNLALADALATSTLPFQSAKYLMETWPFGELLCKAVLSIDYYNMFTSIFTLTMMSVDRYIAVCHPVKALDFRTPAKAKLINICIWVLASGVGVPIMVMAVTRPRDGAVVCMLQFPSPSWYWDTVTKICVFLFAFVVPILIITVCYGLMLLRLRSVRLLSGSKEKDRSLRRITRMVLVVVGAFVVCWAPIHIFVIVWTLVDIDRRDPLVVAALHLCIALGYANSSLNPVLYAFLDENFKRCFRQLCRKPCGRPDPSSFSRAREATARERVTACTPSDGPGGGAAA
The target of series [24] is Kappa-type opioid receptor (Homo sapiens, UniProt P41145). The series can be described thus: Displacement of radioligand from kappa opioid receptor.
The target in a further series is Mu-type opioid receptor (Homo sapiens, UniProt P35372). Nature of the series: Displacement of radioligand from mu opioid receptor.
The target in series [25] is 5-hydroxytryptamine receptor 2B (Homo sapiens, UniProt P41595). The series can be described thus: Displacement of radioligand from 5HT2B receptor.
5-hydroxytryptamine receptor 2B, sequence (P41595 whole entry): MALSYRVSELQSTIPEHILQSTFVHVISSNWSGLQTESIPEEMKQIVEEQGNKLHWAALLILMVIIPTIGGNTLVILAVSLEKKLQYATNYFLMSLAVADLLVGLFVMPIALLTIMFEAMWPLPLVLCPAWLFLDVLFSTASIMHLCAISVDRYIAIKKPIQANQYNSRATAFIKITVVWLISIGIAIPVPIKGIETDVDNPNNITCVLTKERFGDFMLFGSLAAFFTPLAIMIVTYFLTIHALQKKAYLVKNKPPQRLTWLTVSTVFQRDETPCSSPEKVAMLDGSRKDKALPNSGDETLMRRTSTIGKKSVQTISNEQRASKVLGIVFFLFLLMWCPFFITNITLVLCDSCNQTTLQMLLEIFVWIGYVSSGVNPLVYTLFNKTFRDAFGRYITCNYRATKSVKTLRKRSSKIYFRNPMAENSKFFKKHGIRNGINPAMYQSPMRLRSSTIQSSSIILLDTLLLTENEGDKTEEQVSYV
In series [26] the target is Sodium-dependent serotonin transporter (Homo sapiens, UniProt P31645). Nature of the series: Displacement of radioligand from SERT.
The target of another series is Substance-K receptor (Homo sapiens, UniProt P21452). The series can be described thus: Displacement of radioligand from tachykinin NK2 receptor.
A further series addresses Thromboxane A2 receptor (Homo sapiens, UniProt P21731). The series can be described thus: Displacement of radioligand from TXA2 receptor.

Sodium-dependent noradrenaline transporter, sequence (P23975 whole entry): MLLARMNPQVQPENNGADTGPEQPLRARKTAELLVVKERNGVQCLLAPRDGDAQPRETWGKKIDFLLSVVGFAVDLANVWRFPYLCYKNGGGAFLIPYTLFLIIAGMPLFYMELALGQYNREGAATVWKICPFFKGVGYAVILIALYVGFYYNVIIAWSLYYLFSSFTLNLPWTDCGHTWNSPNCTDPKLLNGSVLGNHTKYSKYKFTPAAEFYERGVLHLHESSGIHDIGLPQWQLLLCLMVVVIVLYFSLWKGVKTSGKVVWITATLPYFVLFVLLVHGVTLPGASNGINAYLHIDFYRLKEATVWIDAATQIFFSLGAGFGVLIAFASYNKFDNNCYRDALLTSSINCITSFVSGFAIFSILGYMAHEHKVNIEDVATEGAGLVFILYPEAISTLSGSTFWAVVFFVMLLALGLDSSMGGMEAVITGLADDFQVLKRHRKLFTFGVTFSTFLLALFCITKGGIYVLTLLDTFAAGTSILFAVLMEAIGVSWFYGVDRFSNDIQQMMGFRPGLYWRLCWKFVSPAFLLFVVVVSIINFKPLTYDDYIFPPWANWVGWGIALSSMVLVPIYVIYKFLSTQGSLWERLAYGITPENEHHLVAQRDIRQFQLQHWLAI
Sodium-dependent dopamine transporter, sequence (Q01959 whole entry): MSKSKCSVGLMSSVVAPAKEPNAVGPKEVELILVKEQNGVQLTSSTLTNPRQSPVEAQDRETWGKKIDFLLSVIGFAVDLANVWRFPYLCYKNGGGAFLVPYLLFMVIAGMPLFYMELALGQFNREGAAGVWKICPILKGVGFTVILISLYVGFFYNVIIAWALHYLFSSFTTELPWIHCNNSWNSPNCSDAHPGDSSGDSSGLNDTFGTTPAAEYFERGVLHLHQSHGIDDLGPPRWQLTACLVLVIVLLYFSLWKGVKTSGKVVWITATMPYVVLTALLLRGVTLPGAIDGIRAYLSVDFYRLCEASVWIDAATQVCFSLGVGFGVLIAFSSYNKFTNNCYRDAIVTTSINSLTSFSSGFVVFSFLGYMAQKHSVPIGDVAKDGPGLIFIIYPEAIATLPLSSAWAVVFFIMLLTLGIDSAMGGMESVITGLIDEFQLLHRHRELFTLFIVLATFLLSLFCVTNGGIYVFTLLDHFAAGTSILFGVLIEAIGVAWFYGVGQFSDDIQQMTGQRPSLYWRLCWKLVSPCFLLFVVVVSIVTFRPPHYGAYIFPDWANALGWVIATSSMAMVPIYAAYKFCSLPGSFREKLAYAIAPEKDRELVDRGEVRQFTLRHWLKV
Beta-1 adrenergic receptor, sequence (P08588 whole entry): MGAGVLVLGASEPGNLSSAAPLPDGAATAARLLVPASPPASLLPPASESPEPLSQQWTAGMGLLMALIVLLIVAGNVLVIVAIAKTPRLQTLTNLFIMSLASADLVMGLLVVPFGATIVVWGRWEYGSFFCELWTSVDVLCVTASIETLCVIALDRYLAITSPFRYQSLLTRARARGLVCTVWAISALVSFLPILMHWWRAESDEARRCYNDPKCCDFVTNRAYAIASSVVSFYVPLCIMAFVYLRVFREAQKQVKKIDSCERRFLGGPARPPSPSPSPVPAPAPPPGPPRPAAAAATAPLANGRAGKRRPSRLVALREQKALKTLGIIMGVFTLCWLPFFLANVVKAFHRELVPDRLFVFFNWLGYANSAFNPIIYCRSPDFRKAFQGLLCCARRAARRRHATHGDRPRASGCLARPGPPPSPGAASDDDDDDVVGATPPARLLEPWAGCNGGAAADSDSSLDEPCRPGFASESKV
Thromboxane A2 receptor, sequence (P21731 whole entry): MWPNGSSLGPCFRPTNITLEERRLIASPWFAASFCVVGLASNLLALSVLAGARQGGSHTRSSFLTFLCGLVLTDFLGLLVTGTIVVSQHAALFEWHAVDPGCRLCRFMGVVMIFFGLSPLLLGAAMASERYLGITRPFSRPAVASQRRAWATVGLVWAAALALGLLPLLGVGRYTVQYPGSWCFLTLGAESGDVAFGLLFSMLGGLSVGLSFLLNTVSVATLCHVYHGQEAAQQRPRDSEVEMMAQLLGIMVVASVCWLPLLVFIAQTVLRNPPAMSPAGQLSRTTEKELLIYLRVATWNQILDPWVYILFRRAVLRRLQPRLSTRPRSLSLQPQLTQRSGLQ

Turning to `COc1ccc(C(=O)c2c(C)n(Cc3cccc(O[C@@H](C)C(=O)O)c3)c3ncccc23)cc1`, the IC50 against Cytochrome P450 3A4 was more than 100000 nM; in series [1] it was 66 nM; in [6], more than 50000 nM; in [7] it was more than 50000 nM. For the same compound, in series [2], the EC50 was 27 nM. Further, the clearance in series [3] amounted to 115 mL/min/kg. Further, the half-life in series [4] is 2 h. Further, the bioavailability in series [5] was 29%. Further, in the series on Mus musculus, the Activity worked out at 29%.
Regarding `Cc1c(C(=O)c2ccc(Cl)cc2)c2ccc(OC(F)(F)F)cc2n1Cc1cccc(O[C@H](C)C(=O)O)c1`, the IC50 in series [8] turned out to be 1640 nM; in series [9], 29100 nM; in series [10], 22500 nM; in [11], 8450 nM; in series [12], 1220 nM; in series [13], 3700 nM. Also, the IC50 in series [14] worked out at 2730 nM; on Prostacyclin receptor, 6340 nM; in series [15], 1650 nM; in [16], 770 nM; in series [17], 4070 nM; in series [18], 4860 nM. For the same compound, the IC50 was determined as 2160 nM in [19]; 1530 nM at D(1A) dopamine receptor; 3550 nM on D(2) dopamine receptor; 837 nM on D(3) dopamine receptor; 3410 nM in [20]; 1560 nM in series [21]. Further, the IC50 in series [22] amounted to 1340 nM; in series [23], 1690 nM; in series [24] it was 3480 nM; at Mu-type opioid receptor, 1860 nM; in [25] it was 1140 nM; in series [26], 970 nM. The half-inhibitory concentration (IC50) on Substance-K receptor was determined as 530 nM; on Thromboxane A2 receptor, 2030 nM.
